Assay results taken from BindingDB's records for doi:10.1021/jm0491039 (University of Washington At Seattle, 2005).

Key:
[1] = target: Protein farnesyltransferase/geranylgeranyltransferase type-1 subunit alpha (Rattus norvegicus, UniProt Q04631); experiment: PfPFT and Rat PFT IC50 Determination
Method: (§1) Assays for PFT activity were performed with a PFT-specific scintillation assay (SPA) kit (Amersham Biosciences, Piscataway, NJ). IC50 values were calculated using linear regression analysis of the plots of [3H] farnesyl pyrophosphate (FPP) prenylation versus concentration of compounds.

[2] = target: Protein farnesyltransferase/geranylgeranyltransferase type-1 subunit alpha / Protein farnesyltransferase subunit beta (Plasmodium falciparum, UniProt Q5EI73+Q5EI74); experiment: PfPFT and Rat PFT IC50 Determination; details: pH 7.5; 37 °C
Protein farnesyltransferase/geranylgeranyltransferase type-1 subunit alpha / Protein farnesyltransferase subunit beta, sequence (Q5EI73 1-521): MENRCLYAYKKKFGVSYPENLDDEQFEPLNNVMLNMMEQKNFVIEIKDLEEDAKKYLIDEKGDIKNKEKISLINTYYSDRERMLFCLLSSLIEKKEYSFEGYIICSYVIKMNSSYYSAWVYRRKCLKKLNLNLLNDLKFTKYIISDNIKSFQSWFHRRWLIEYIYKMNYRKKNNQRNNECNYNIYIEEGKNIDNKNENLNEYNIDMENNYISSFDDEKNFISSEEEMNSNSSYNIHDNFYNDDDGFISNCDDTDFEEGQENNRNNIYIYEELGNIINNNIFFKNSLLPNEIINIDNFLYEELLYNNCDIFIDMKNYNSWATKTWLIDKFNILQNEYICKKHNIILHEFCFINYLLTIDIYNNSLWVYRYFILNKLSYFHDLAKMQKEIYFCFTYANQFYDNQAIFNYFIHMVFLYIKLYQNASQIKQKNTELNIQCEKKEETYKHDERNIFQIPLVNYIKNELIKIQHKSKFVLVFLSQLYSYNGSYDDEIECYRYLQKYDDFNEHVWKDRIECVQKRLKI
Protein farnesyltransferase/geranylgeranyltransferase type-1 subunit alpha / Protein farnesyltransferase subunit beta, sequence (Q5EI74 1-923): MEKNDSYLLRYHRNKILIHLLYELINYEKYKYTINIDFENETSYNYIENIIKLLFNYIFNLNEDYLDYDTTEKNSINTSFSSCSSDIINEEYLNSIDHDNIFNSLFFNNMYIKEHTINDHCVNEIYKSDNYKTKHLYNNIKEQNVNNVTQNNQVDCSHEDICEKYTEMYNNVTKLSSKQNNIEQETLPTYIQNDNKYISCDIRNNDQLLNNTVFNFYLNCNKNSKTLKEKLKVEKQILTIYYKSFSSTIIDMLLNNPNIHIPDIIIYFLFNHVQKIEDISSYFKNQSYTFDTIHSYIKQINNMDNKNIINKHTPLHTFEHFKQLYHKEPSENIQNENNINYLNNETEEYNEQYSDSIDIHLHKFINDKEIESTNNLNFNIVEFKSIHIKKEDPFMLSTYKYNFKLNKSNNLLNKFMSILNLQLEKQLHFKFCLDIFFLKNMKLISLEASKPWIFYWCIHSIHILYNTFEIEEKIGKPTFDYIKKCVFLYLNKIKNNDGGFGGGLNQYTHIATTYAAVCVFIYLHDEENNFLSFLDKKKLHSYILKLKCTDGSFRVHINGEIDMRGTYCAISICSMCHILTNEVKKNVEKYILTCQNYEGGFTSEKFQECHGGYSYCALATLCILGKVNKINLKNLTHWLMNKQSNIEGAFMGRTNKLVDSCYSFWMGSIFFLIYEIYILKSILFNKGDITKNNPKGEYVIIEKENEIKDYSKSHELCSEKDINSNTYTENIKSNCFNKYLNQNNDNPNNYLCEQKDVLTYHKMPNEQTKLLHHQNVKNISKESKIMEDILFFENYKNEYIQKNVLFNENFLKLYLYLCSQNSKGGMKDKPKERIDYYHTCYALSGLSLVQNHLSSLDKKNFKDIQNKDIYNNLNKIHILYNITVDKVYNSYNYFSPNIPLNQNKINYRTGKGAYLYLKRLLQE
Method: as §1

Row | SMILES | IC50 [1] [nM] | IC50 [2] [nM]
1 | [C-]#[N+]c1ccc2c(c1)CC(N(CC(=O)NC(C)(C)C)S(=O)(=O)c1ccncc1)CN2Cc1cncn1C (stereo unspecified) [N-tert-Butyl-2-[[6-isocyano-1-(3-methyl-3H-imidazol-4-ylmethyl)-1,2,3,4-tetrahydroquinolin-3-yl]-(pyridine-4-sulfonyl)amino]acetamide] | 160 | 1000
2 | [C-]#[N+]c1ccc2c(c1)CC(N(CC(=O)NC(C)(C)C)S(=O)(=O)c1ccccn1)CN2Cc1cncn1C (stereo unspecified) [N-tert-butyl-2-({6-isocyano-1-[(1-methyl-1H-imidazol-5-yl)methyl]-1,2,3,4-tetrahydroquinolin-3-yl}(pyridine-2-)sulfonamido)acetamide] | 1.8 | 1.4
3 | [C-]#[N+]c1ccc2c(c1)CC(N(CC(=O)NC(C)(C)C)S(=O)(=O)c1cccnc1)CN2Cc1cncn1C (stereo unspecified) [N-tert-Butyl-2-[[6-isocyano-1-(3-methyl-3H-imidazol-4-ylmethyl)-1,2,3,4-tetrahydroquinolin-3-yl]-(pyridine-3-sulfonyl)amino]acetamide] | 6 | 25
